# Assay results as given in patent publication US5030760A, “Tetrahydrophthalimides, and their production and use” (Sumitomo Chemical Company, Ltd., priority 1981, dated 1991).
# Test system: tall morningglory
# Assay: Test Example 3, soil surface spraying, herbicidal activity; further: ranges in brackets are in %
# Assay type: in vivo, Ipomoea purpurea
# Settings: 5 g/are, 20 days
# Method: (§1) The application of the tetrahydrophthalimides (I) as herbicides will be illustratively shown in the following Examples wherein the phytotoxicity to cultivated plants and the herbicidal activity on weeds were evaluated as follows: the aerial parts of the test plants were cut off and weighed (fresh weight); the percentage of the fresh weight of the treated plant to that of the untreated plant was calculated with the latter fresh weight taken as 100; and the crop damage and the herbicidal activity were evaluated by the standard given in the table below. The rating values of phytotoxicity, 0 and 1, and those of herbicidal effect, 5 and 4, are generally regarded as satisfactory to protect cultivated plants and control weeds, respectively. The rating values in the paddy field test alone were calculated from the dry weight of the test plants.
# (§2) Plastic trays (35 cm×25 cm×15 cm) were filled with upland field soil, and the seeds of tall morningglory, velvetleaf and sicklepod and the seeds of corn were sown therein. A designed amount of the test compounds formulated into a wettable powder according to Preparation Example 1 was dispersed in water and applied by spraying at a spray volume of 5 liters per are to the whole surface of the soil. After the spraying, the test plants were placed in a greenhouse and grown for 20 days, and herbicidal activity and phytotoxicity were examined.
row,SMILES,"Herbicidal activity, Tall morningglory"
1,CCC(C)Oc1cc(N2C(=O)C3=C(CCCC3)C2=O)c(F)cc1Cl (stereo not drawn) [compound 4],4 (1-10)
2,CC(C)COc1cc(N2C(=O)C3=C(CCCC3)C2=O)c(F)cc1Cl [compound 5],4 (1-10)
3,CCCCOc1cc(N2C(=O)C3=C(CCCC3)C2=O)c(F)cc1Cl [compound 6],4 (1-10)

# Same assay, conditions: 10 g/are, 20 days
row,SMILES,"Herbicidal activity, Tall morningglory"
1,CCC(C)Oc1cc(N2C(=O)C3=C(CCCC3)C2=O)c(F)cc1Cl (stereo not drawn) [compound 4],5 (0)
2,CC(C)COc1cc(N2C(=O)C3=C(CCCC3)C2=O)c(F)cc1Cl [compound 5],5 (0)
3,CCCCOc1cc(N2C(=O)C3=C(CCCC3)C2=O)c(F)cc1Cl [compound 6],4 (1-10)

# Test system: corn
# Assay: Test Example 3, soil surface spraying, phytotoxicity to corn; further: ranges in brackets are in %
# Assay type: in vivo
# Settings: 5 g/are, 20 days
# Method: as §1, §2
row,SMILES,"Phytotoxicity, Corn"
1,CCC(C)Oc1cc(N2C(=O)C3=C(CCCC3)C2=O)c(F)cc1Cl (stereo not drawn) [compound 4],0 (100)
2,CC(C)COc1cc(N2C(=O)C3=C(CCCC3)C2=O)c(F)cc1Cl [compound 5],0 (100)
3,CCCCOc1cc(N2C(=O)C3=C(CCCC3)C2=O)c(F)cc1Cl [compound 6],0 (100)

# Same assay, conditions: 10 g/are, 20 days
row,SMILES,"Phytotoxicity, Corn"
1,CCC(C)Oc1cc(N2C(=O)C3=C(CCCC3)C2=O)c(F)cc1Cl (stereo not drawn) [compound 4],0 (100)
2,CC(C)COc1cc(N2C(=O)C3=C(CCCC3)C2=O)c(F)cc1Cl [compound 5],0 (100)
3,CCCCOc1cc(N2C(=O)C3=C(CCCC3)C2=O)c(F)cc1Cl [compound 6],0 (100)

# Test system: corn
# Assay: Test Example 1, foliar treatment, phytotoxicity to corn; further: ranges in brackets are in %
# Assay type: in vivo
# Settings: 1.25 g/are, 3 weeks
# Method: as §1
# (§3) Plastic beakers (diameter, 10 cm; height, 10 cm) were filled with upland field soil, and the seeds of corn, barnyardgrass, wild oat, wild mustard and velvetleaf were separately sown in the beakers and grown for 2 weeks in the greenhouse. A designed amount of the test compound was sprayed to the foliage of the test plants by means of a small hand sprayer. After the spraying, the test plants were further grown for 3 weeks in the greenhouse, and herbicidal activity was examined. In this foliar treatment, the test compounds were formulated into an emulsifiable concentrate according to Preparation Example 2 and applied at a spray volume of 5 liters per are by dispersing it in water with the addition of a spreading agent.
row,SMILES,"Phytotoxicity, Corn"
1,CCC(C)Oc1cc(N2C(=O)C3=C(CCCC3)C2=O)c(F)cc1Cl (stereo not drawn) [compound 4],0 (100)
2,CC(C)COc1cc(N2C(=O)C3=C(CCCC3)C2=O)c(F)cc1Cl [compound 5],0 (100)
3,CCCCOc1cc(N2C(=O)C3=C(CCCC3)C2=O)c(F)cc1Cl [compound 6],0 (100)

# Same assay, conditions: 5 g/are, 3 weeks
row,SMILES,"Phytotoxicity, Corn"
1,CCC(C)Oc1cc(N2C(=O)C3=C(CCCC3)C2=O)c(F)cc1Cl (stereo not drawn) [compound 4],1 (90-99)
2,CC(C)COc1cc(N2C(=O)C3=C(CCCC3)C2=O)c(F)cc1Cl [compound 5],0 (100)
3,CCCCOc1cc(N2C(=O)C3=C(CCCC3)C2=O)c(F)cc1Cl [compound 6],0 (100)

# Test system: barnyardgrass
# Assay: Test Example 1, foliar treatment, herbicidal activity; on Herbicidal activity, Barnyardgrass: ranges in brackets are in %; on Herbicidal activity, Velvetleaf: ranges in brackets are in %; on Herbicidal activity, Wild cat: ranges in brackets are in %
# Assay type: in vivo, Echinochloa crus-galli
# Settings: 1.25 g/are, 3 weeks
# Method: as §1, §3
row,SMILES,"Herbicidal activity, Barnyardgrass"
1,CCC(C)Oc1cc(N2C(=O)C3=C(CCCC3)C2=O)c(F)cc1Cl (stereo not drawn) [compound 4],1 (41-60)
2,CC(C)COc1cc(N2C(=O)C3=C(CCCC3)C2=O)c(F)cc1Cl [compound 5],2 (21-40)
3,CCCCOc1cc(N2C(=O)C3=C(CCCC3)C2=O)c(F)cc1Cl [compound 6],3 (11-20)

# Same assay, conditions: 5 g/are, 3 weeks
row,SMILES,"Herbicidal activity, Barnyardgrass"
1,CCC(C)Oc1cc(N2C(=O)C3=C(CCCC3)C2=O)c(F)cc1Cl (stereo not drawn) [compound 4],5 (0)
2,CC(C)COc1cc(N2C(=O)C3=C(CCCC3)C2=O)c(F)cc1Cl [compound 5],4 (1-10)
3,CCCCOc1cc(N2C(=O)C3=C(CCCC3)C2=O)c(F)cc1Cl [compound 6],4 (1-10)

# Test system: velvetleaf
# Assay: as above
# Assay type: in vivo, Abutilon theophrasti
# Settings: 1.25 g/are, 3 weeks
# Method: as §1, §3
row,SMILES,"Herbicidal activity, Velvetleaf"
1,CCC(C)Oc1cc(N2C(=O)C3=C(CCCC3)C2=O)c(F)cc1Cl (stereo not drawn) [compound 4],5 (0)
2,CC(C)COc1cc(N2C(=O)C3=C(CCCC3)C2=O)c(F)cc1Cl [compound 5],5 (0)
3,CCCCOc1cc(N2C(=O)C3=C(CCCC3)C2=O)c(F)cc1Cl [compound 6],5 (0)

# Same assay, conditions: 5 g/are, 3 weeks
row,SMILES,"Herbicidal activity, Velvetleaf"
1,CCC(C)Oc1cc(N2C(=O)C3=C(CCCC3)C2=O)c(F)cc1Cl (stereo not drawn) [compound 4],5 (0)
2,CC(C)COc1cc(N2C(=O)C3=C(CCCC3)C2=O)c(F)cc1Cl [compound 5],5 (0)
3,CCCCOc1cc(N2C(=O)C3=C(CCCC3)C2=O)c(F)cc1Cl [compound 6],5 (0)

# Test system: sicklepod
# Assay: Test Example 3, soil surface spraying, herbicidal activity; further: ranges in brackets are in %
# Assay type: in vivo, Cassia obtusifolia
# Settings: 5 g/are, 20 days
# Method: as §1, §2
row,SMILES,"Herbicidal activity, Sicklepod"
1,CCC(C)Oc1cc(N2C(=O)C3=C(CCCC3)C2=O)c(F)cc1Cl (stereo not drawn) [compound 4],4 (1-10)
2,CC(C)COc1cc(N2C(=O)C3=C(CCCC3)C2=O)c(F)cc1Cl [compound 5],4 (1-10)
3,CCCCOc1cc(N2C(=O)C3=C(CCCC3)C2=O)c(F)cc1Cl [compound 6],4 (1-10)

# Same assay, conditions: 10 g/are, 20 days
row,SMILES,"Herbicidal activity, Sicklepod"
1,CCC(C)Oc1cc(N2C(=O)C3=C(CCCC3)C2=O)c(F)cc1Cl (stereo not drawn) [compound 4],4 (1-10)
2,CC(C)COc1cc(N2C(=O)C3=C(CCCC3)C2=O)c(F)cc1Cl [compound 5],4 (1-10)
3,CCCCOc1cc(N2C(=O)C3=C(CCCC3)C2=O)c(F)cc1Cl [compound 6],4 (1-10)

# Test system: wild oat
# Assay: Test Example 1, foliar treatment, herbicidal activity; on Herbicidal activity, Barnyardgrass: ranges in brackets are in %; on Herbicidal activity, Velvetleaf: ranges in brackets are in %; on Herbicidal activity, Wild cat: ranges in brackets are in %
# Assay type: in vivo, Avena fatua
# Settings: 1.25 g/are, 3 weeks
# Method: as §1, §3
row,SMILES,"Herbicidal activity, Wild cat"
1,CCC(C)Oc1cc(N2C(=O)C3=C(CCCC3)C2=O)c(F)cc1Cl (stereo not drawn) [compound 4],2 (21-40)
2,CC(C)COc1cc(N2C(=O)C3=C(CCCC3)C2=O)c(F)cc1Cl [compound 5],1 (41-60)
3,CCCCOc1cc(N2C(=O)C3=C(CCCC3)C2=O)c(F)cc1Cl [compound 6],1 (41-60)

# Same assay, conditions: 5 g/are, 3 weeks
row,SMILES,"Herbicidal activity, Wild cat"
1,CCC(C)Oc1cc(N2C(=O)C3=C(CCCC3)C2=O)c(F)cc1Cl (stereo not drawn) [compound 4],5 (0)
2,CC(C)COc1cc(N2C(=O)C3=C(CCCC3)C2=O)c(F)cc1Cl [compound 5],4 (1-10)
3,CCCCOc1cc(N2C(=O)C3=C(CCCC3)C2=O)c(F)cc1Cl [compound 6],3 (11-20)

# Test system: velvetleaf
# Assay: Test Example 3, soil surface spraying, herbicidal activity; further: ranges in brackets are in %
# Assay type: in vivo, Abutilon theophrasti
# Settings: 5 g/are, 20 days
# Method: as §1, §2
row,SMILES,"Herbicidal activity, Velvetleaf"
1,CCC(C)Oc1cc(N2C(=O)C3=C(CCCC3)C2=O)c(F)cc1Cl (stereo not drawn) [compound 4],5 (0)
2,CC(C)COc1cc(N2C(=O)C3=C(CCCC3)C2=O)c(F)cc1Cl [compound 5],5 (0)
3,CCCCOc1cc(N2C(=O)C3=C(CCCC3)C2=O)c(F)cc1Cl [compound 6],5 (0)

# Same assay, conditions: 10 g/are, 20 days
row,SMILES,"Herbicidal activity, Velvetleaf"
1,CCC(C)Oc1cc(N2C(=O)C3=C(CCCC3)C2=O)c(F)cc1Cl (stereo not drawn) [compound 4],5 (0)
2,CC(C)COc1cc(N2C(=O)C3=C(CCCC3)C2=O)c(F)cc1Cl [compound 5],5 (0)
3,CCCCOc1cc(N2C(=O)C3=C(CCCC3)C2=O)c(F)cc1Cl [compound 6],5 (0)

# Test system: wild mustard
# Assay: Test Example 1, foliar treatment, herbicidal activity; on Herbicidal activity, Barnyardgrass: ranges in brackets are in %; on Herbicidal activity, Velvetleaf: ranges in brackets are in %; on Herbicidal activity, Wild cat: ranges in brackets are in %
# Assay type: in vivo, Brassica kaber
# Settings: 1.25 g/are, 3 weeks
# Method: as §1, §3
row,SMILES,"Herbicidal activity, Wild mustard"
1,CCC(C)Oc1cc(N2C(=O)C3=C(CCCC3)C2=O)c(F)cc1Cl (stereo not drawn) [compound 4],4 (1-10)
2,CC(C)COc1cc(N2C(=O)C3=C(CCCC3)C2=O)c(F)cc1Cl [compound 5],3 (11-20)
3,CCCCOc1cc(N2C(=O)C3=C(CCCC3)C2=O)c(F)cc1Cl [compound 6],4 (1-10)

# Same assay, conditions: 5 g/are, 3 weeks
row,SMILES,"Herbicidal activity, Wild mustard"
1,CCC(C)Oc1cc(N2C(=O)C3=C(CCCC3)C2=O)c(F)cc1Cl (stereo not drawn) [compound 4],5 (0)
2,CC(C)COc1cc(N2C(=O)C3=C(CCCC3)C2=O)c(F)cc1Cl [compound 5],5 (0)
3,CCCCOc1cc(N2C(=O)C3=C(CCCC3)C2=O)c(F)cc1Cl [compound 6],5 (0)
